Test results published in patent US5859227A, “RNA sequences which interact with RNA-binding proteins” (Bearsden Bio, Inc., priority 1997, dated 1999).
Values belong to the molecule of their own block, whether it stands above or below them.

Tests used:
[1] = system: AUUUA RNA / RNA binding protein (K562 extract); assay: Exploratory library screen, filter binding, 32P-labeled AUUUA RNA and K562 extract; conditions: 10 μM
From the text: FIG. 4 is a graph of the amount of radioactively labeled RNA retained on a filter (expressed in percent of the amount of RNA retained on a filter in a reference binding solution) following loading of various binding solutions. All of the binding solutions contained radioactively labeled AUUUA RNA either alone or including various other components. The first column represents a binding solution without RNA binding protein. The remaining columns represent binding solution containing RNA binding protein (K562 extract). Columns 3 through 8 correspond to binding solutions including the indicated test compound.
(§1) a. Filter binding. Filter binding involves trapping interacting molecules on a filter while non interacting molecules pass through the filter. This procedure is known to those of skill in the art. For example, prewet nitrocellulose filters are equilibrated in 1× binding buffer. The binding reaction is then applied to the filter by vacuum filtration to remove unbound RNA. The filter is washed in 1× binding buffer, scintillation cocktail is added and the amount of protein-bound RNA is determined by scintillation counting.
(§2) All binding reactions were performed in 96-well v-bottom plates in a final volume of 10 μl. The assays were constituted and performed as described below. Specifically, assays were performed by (1) forming a binding solution including RNA molecules, 7.5 mM BTP at pH 8.5, 10 mM KCl, 5 mM MgCl2, 0.2 mM DTT, and 10% glycerol, (2) heating the binding solution to denature the RNA molecules, (3) cooling the binding solution, (4) adding RNA binding proteins to the binding solution, (5) loading the binding solution onto a filter, and (6) detecting the amount RNA retain on the filter. It is preferred that the samples be loaded on to a filter of either pure nitrocellulose or a mixed cellulose ester (MCA). It is also preferred that the filters have a 0.2μ pore size, although filters with a 0.45μ pore size will also bind the RNA/RNA binding protein complex. It is preferred that, prior to loading the binding solution onto a filter, the volume is increased. For this purpose, it is preferred that the dilution solution has the same buffer components as the binding solution except lacking the density agent. For a 10 μl volume it is preferred that the final volume be about 100 μl. It is also preferred that the binding solution be loaded onto the filter under vacuum. It is also preferred that the filter is washed twice prior to detecting the amount of RNA retained on the filter. Preferably the wash solution had the same composition as the dilution solution. However, TE (pH 8.0), PBS, or TCA can also be used as wash solutions. In most of the assays described below, the RNA molecules were labeled with ^32 P.
The library was initially screened at 10 μM against ^32 P-labeled AUUUA RNA. Several methods of introducing the compounds into the binding reaction were tested. Initially the compounds were co-incubated with the RNA and protein, producing modest results. Next, preincubation with either the protein extract or the RNA was tried with improved results.
Seventeen compounds were chosen for further analysis at 100 nM, 1 μM and 10 μM using both AUUUA and IRE RNAs based on the results from three screening efforts (Exps. 29-31). Table 2 summarizes the results from these compounds at 10 μM. The results are also shown graphically in FIG. 4. […] Compounds D9 and H2, chosen as negative controls from the initial screening, continued to have no effect in the dose dependent screen (Exp. 33) and were identified as vehicle controls.
A 96 member random compound library was screened with the disclosed high throughput assay. The compounds were initially screened at 10 μM against ^32 P-labeled AUUUA RNA. […] Seventeen compounds were chosen for further analysis at 100 nM, 1 μM and 10 μM using both AUUUA and IRE RNA molecules to determine if any selectivity of the compounds could be detected. […]

TNF-α production = conditions: previously shown; cited from earlier work
[2] = system: IRE RNA / RNA binding protein (K562 extract); assay: High throughput filter binding assay, labeled IRE RNA and K562 protein extract; conditions: hemin 1 to 100 μM; FeCl3 and desferroxiamine 1 μM to 1 mM
Procedure: as §1
as §2, with “It is also preferred that the binding solution be loaded onto the filter under vacuum. It is also preferred that the filter is washed twice prior to detecting the amount of RNA retained on the filter. Preferably the wash solution had the same composition as the dilution solution. However, TE (pH 8.0), PBS, or TCA can also be used as wash solutions. In most of the assays described below, the RNA molecules were labeled with ^32 P.” left out
Binding assays were performed with wild-type IRE RNA and K562 protein extract in the presence of sources of iron or iron chelators to determine the ability of the filter assay to detect the modulation of binding interactions by small molecules. […] The reactions were analyzed by gel shifts to visualize the results of the filter assay. […]

[3] = system: human CD45 5' UTR / RNA binding proteins (K562 cell line protein); assay: Gel shift specificity (competition), labeled CD45 5' UTR and K562 protein; conditions: 100 and 1,000 fold molar excess of unlabeled RNA
From the text: (§3) A primer pair was designed from the 5' end of the UTR and a 3' primer encompassing nucleotide +1 with the use of the OLIGO program. Similar primers encompassing the same criteria can be designed either manually without the use of this program, or using another similar oligonucleotide design program. In addition, the 5' primer contained 24 nucleotides at the 5' end encoding for the T7 promoter. Clones containing the above sequences were generated by rtPCR from total RNA obtained from the K562 lymphoblastoma cell line. The clones were restriction mapped and analyzed by gel electrophoresis to confirm their identity.
(§4) PCR products generating a single band (in the undigested lanes) were then used for in vitro transcription of labeled RNA using Ambion's Maxiscript Kit. The labeled transcripts were used in the RNA binding protein detection assay described above. The binding solutions containing the labeled RNA were incubated with 2 μg of protein isolated from the same cell from which the rtPCR product was generated, and the products were resolved on a non-denaturing gel. […] In this experiment, a 100 and 1,000 fold molar excess of unlabeled identical RNA or the same excess of different RNA are added to the binding reactions.

[4] = system: human C4b-binding protein 5' UTR / RNA binding proteins (K562 cell line protein); assay: Gel shift specificity (competition), labeled C4b-binding protein 5' UTR and K562 protein; conditions: 100 and 1,000 fold molar excess of unlabeled RNA
From the text: as §3, §4

labeled AUUUA RNA retained on filter, percent of RNA&K562 reference, Experiment #29 ([1]; RNA&K562 = 100): 114.53%
labeled AUUUA RNA retained on filter, percent of RNA&K562 reference, Experiment #30 ([1]; RNA&K562 = 100): 66.94%
labeled AUUUA RNA retained on filter, percent of RNA&K562 reference, Experiment #31 ([1]; RNA&K562 = 100): 127.28%
labeled AUUUA RNA retained on filter, percent of RNA&K562 reference, Experiment #33 ([1]; RNA&K562 = 100): 135.24%
Avg. % (labeled AUUUA RNA retained on filter) ([1]; mean of Experiments #33, #31, #30, #29): 111.00%
Molecule: CC(=NN=C(N)N)c1cc(NC(=O)CCCCCCCCC(=O)Nc2cc(C(C)=NN=C(N)N)cc(C(C)=NN=C(N)N)c2)cc(C(C)=NN=C(N)N)c1 [Compound G10, CNI-1493]
change in counts across the experiments ([1]; 4 experiments): substantial increase in counts in 3 of the 4 experiments
post-transcriptional inhibition of TNF-α production (TNF-α production): post-transcriptionally inhibit TNF-α production

Molecule: CC(=O)N(O)CCCCCNC(=O)CCC(=O)N(O)CCCCCNC(=O)CCC(=O)N(O)CCCCCN [Desferroxiamine, desferroxiamine]
modulation of IRE/protein binding by small molecules [2]: did not change the amount IRE/protein complex formed

Molecule: [Cl][Fe]([Cl])[Cl] [FeCl3]
modulation of IRE/protein binding by small molecules [2]: concentration-dependent inhibition of binding

Molecule: hemin
modulation of IRE/protein binding by small molecules [2]: concentration-dependent inhibition of binding

B1: CD45: 5' UTR RNA of human CD45, SEQ ID NO:4 (nucleic acid)
chain: CUGACAUCAUCACCUAGCAGUUCAUGCAGCUAGCAAGUGGUUUGUUCUUAGGGUAACAGAGGAGGAAAUUGUUCCUCGUCUGAUAAGACAACAGUGGAGAAAGGACGCAUGCAGUUUCUUAGGGACACGGCUGACUUCCAGAUAUGACCAUGUAUUUGUGGCUUAAACUCUUGG
competition of complex formation by unlabeled RNA [3]: concentration dependent inhibition of complex formation

B2: C4b-binding protein: 5' UTR RNA of human C4b-binding protein alpha chain, SEQ ID NO:3 (nucleic acid)
chain: GCUGCUUUAUUUCUGCUGUUAAUCAUUCAUUGGGCCCGUCAAAAGUUUCUGCCCAUCUAUUUCCAUCAACCGUCCUUGACCAGCCAACCACAUGGCUGAAAUUCAGG
modifications: expressed or natural sequence
competition of complex formation by unlabeled RNA [4]: concentration dependent inhibition of complex formation
